Data from ChEMBL document CHEMBL4765408, “Design and synthesis of benzylidenecyclohexenones as TrxR inhibitors displaying high anticancer activity and inducing ROS, apoptosis, and autophagy” (Eur J Med Chem, 2020).
Blank lines part the entries; values can stand above or below the molecule they belong to. Calls of active or inactive are those of the source. The rule behind the calls is not given here.

What was measured:
MDA-MB-231 [1] = assay: Antiproliferative activity against human MDA-MB-231 cells after 72 hrs by sulforhodamine B assay; format: functional, cell-based; details: MDA-MB-231, 72 h
MCF7 = assay: Antiproliferative activity against human MCF7 cells after 72 hrs by sulforhodamine B assay; format: functional, cell-based; details: MCF7, 72 h
A549 = assay: Antiproliferative activity against human A549 cells after 72 hrs by sulforhodamine B assay; format: functional, cell-based; details: A549, 72 h
KB = assay: Antiproliferative activity against human KB cells after 72 hrs by sulforhodamine B assay; format: functional, cell-based
[2] = Antiproliferative activity against human KB-VIN cells after 72 hrs by sulforhodamine B assay; format: functional, cell-based; details: KBVIN
[3] = Inhibition of TrxR in human MDA-MB-231 cells measured after 72 hrs by colorimetric method; format: cell-based
MDA-MB-231 [4] = assay: Induction of reactive oxygen species generation in human MDA-MB-231 cells measured after 24 hrs by DCFH-DA probe based flow cytometry; format: functional, cell-based
MDA-MB-231 [5] = assay: Antitumor activity against human MDA-MB-231 cells xenografted in BALB/c nude mouse assessed as reduction in tumor volume at 10 to 25 mg/kg, ip measured at 2 days interval for 21 days; format: functional, organism-based; details: dose 10-25 mg/kg, time 2.0 day
Rattus norvegicus = organism: Rattus norvegicus; assay: Inhibition of purified rat liver TrxR measured after 75 mins in presence of NADPH by DTNB based assay
MDA-MB-231 [6] = assay: Down regulation of TrxR1 expression in human MDA-MB-231 cells measured after 72 hrs by Western blot analysis; format: functional, cell-based
MDA-MB-231 [7] = assay: Induction of apoptosis in human MDA-MB-231 cells at 0.2 uM measured after 72 hrs by APC-Annexin V/7-AAD staining based flow cytometry relative to control; format: functional
MDA-MB-231 [8] = assay: Induction of apoptosis in human MDA-MB-231 cells at 0.6 uM measured after 72 hrs by APC-Annexin V/7-AAD staining based flow cytometry relative to control; format: functional
MDA-MB-231 [9] = assay: Induction of apoptosis in human MDA-MB-231 cells at 1.8 uM measured after 72 hrs by APC-Annexin V/7-AAD staining based flow cytometry relative to control; format: functional
MDA-MB-231 [10] = assay: Induction of apoptosis in human MDA-MB-231 cells assessed as reduction in Bcl-2 expression measured after 72 hrs by Western blot analysis; format: functional, cell-based
MDA-MB-231 [11] = assay: Induction of apoptosis in human MDA-MB-231 cells assessed as reduction in Bcl-XL expression measured after 72 hrs by Western blot analysis; format: functional, cell-based
MDA-MB-231 [12] = assay: Induction of apoptosis in human MDA-MB-231 cells assessed as activation of caspase-3 cleavage at 0.2 to 1.8 uM measured after 72 hrs by Western blot analysis; format: functional, cell-based; details: dose 0.2-1.8 µM
MDA-MB-231 [13] = assay: Induction of autophagy in human MDA-MB-231 cells transfected with mRFP-eGFP-LC3 assessed as accumulation of autophagosomes by measuring increase in […] fluorescence measured after 24 hrs by confocal laser scanning microscopy; format: functional, cell-based
MDA-MB-231 [14] = assay: Induction of autophagy in human MDA-MB-231 cells transfected with mRFP-eGFP-LC3 assessed as accumulation of autolysosome by measuring increase in red fluorescence measured after 24 hrs by confocal laser scanning microscopy; format: functional, cell-based
MDA-MB-231 [15] = assay: Induction of autophagy in human MDA-MB-231 cells transfected with mRFP-eGFP-LC3 assessed as decrease in p62 expression at 0.2 to 1.8 uM measured after 72 hrs by Western blot analysis; format: functional, cell-based; details: dose 0.2-1.8 µM
MDA-MB-231 [16] = assay: Induction of autophagy in human MDA-MB-231 cells transfected with mRFP-eGFP-LC3 assessed as decrease in LC3-I expression at 0.2 to 1.8 uM measured after 72 hrs by Western blot analysis; format: functional, cell-based; details: dose 0.2-1.8 µM
MDA-MB-231 [17] = assay: Induction of autophagy in human MDA-MB-231 cells transfected with mRFP-eGFP-LC3 assessed as increase in LC3-II expression at 0.2 to 1.8 uM measured after 72 hrs by Western blot analysis; format: functional, cell-based; details: dose 0.2-1.8 µM
[18] = Acute toxicity in ICR mouse assessed as survival at 488.3 mg/kg, ip administered as single dose measured for 14 days; format: organism-based; details: in vivo, time 14 day, read-out: Activity
[19] = Acute toxicity in ICR mouse assessed as survival at 390.6 mg/kg, ip administered as single dose measured for 14 days; format: organism-based; details: in vivo, time 14 day, read-out: Activity
[20] = Acute toxicity in ICR mouse assessed as survival at 312.5 mg/kg, ip administered as single dose measured for 14 days; format: organism-based; details: in vivo, time 14 day, read-out: Activity
[21] = Acute toxicity in ICR mouse assessed as survival at 250 mg/kg, ip administered as single dose measured for 14 days; format: organism-based; details: in vivo, time 14 day, read-out: Activity
[22] = Acute toxicity in ICR mouse assessed as survival at 200 mg/kg, ip administered as single dose measured for 14 days; format: organism-based; details: in vivo, time 14 day, read-out: Activity
[23] = Acute toxicity in ICR mouse assessed as change in body weight at 200 mg/kg, ip administered as single dose measured for 14 days; format: organism-based; details: in vivo, 336 h, time 14 day
[24] = Acute toxicity in ICR mouse assessed as abnormality in drinking at 200 mg/kg, ip administered as single dose measured for 14 days; format: organism-based; details: in vivo, 336 h, time 14 day
[25] = Acute toxicity in ICR mouse assessed as abnormality in eating at 200 mg/kg, ip administered as single dose measured for 14 days; format: organism-based; details: in vivo, 336 h, time 14 day
[26] = Acute toxicity in ICR mouse assessed as death at 200 mg/kg, ip administered as single dose measured for 14 days; format: organism-based; details: in vivo, 336 h, time 14 day
[27] = Acute toxicity in ip dosed ICR mouse administered as single dose measured for 14 days; format: organism-based; details: in vivo, time 14 day
MDA-MB-231 [28] = assay: Antitumor activity against human MDA-MB-231 cells xenografted in BALB/c nude mouse assessed as reduction in tumor weight at 25 mg/kg, ip measured at 2 days interval for 21 days relative to control; format: functional; set-up: scale not given: the % may be the effect or the level left; details: time 2 day

Compound: O=C1C=CCC/C1=C\c1cnc2ccccc2c1
IC50 (MDA-MB-231 [1]): 640 nM
IC50 (MCF7): 5250 nM
IC50 (A549): 4450 nM
IC50 (KB): 920 nM
IC50 [2]: 5380 nM

Compound: COc1cc(/C=C2\CCC=CC2=O)cc2ccccc12
IC50 (MDA-MB-231 [1]): 1630 nM
IC50 (MCF7): 3600 nM
IC50 (A549): 1630 nM
IC50 (KB): 1500 nM
IC50 [2]: 2620 nM

Compound: O=C1C=CCC/C1=C\c1cccc(OC(F)(F)F)c1
IC50 (MDA-MB-231 [1]): 820 nM

Compound: COc1ccc(/C=C2\CCC=CC2=O)c(C)c1
IC50 (MDA-MB-231 [1]): 1070 nM
IC50 (MCF7): 1840 nM
IC50 (A549): 1550 nM
IC50 (KB): 1310 nM
IC50 [2]: 1590 nM
IC50 [3]: 460 nM
Activity (MDA-MB-231 [4]): Active

Compound: O=C1C=CCC/C1=C\c1ccc(OC(F)(F)F)cc1
Activity (MDA-MB-231 [5]): Active
inhibition (Rattus norvegicus): Active
IC50 (MDA-MB-231 [1]): 590 nM
IC50 (MCF7): 1040 nM
IC50 (A549): 440 nM
IC50 (KB): 530 nM
IC50 [2]: 840 nM
IC50 [3]: 120 nM
Activity (MDA-MB-231 [6]): Dose-dependent effect
Activity (MDA-MB-231 [4]): Active
Activity (MDA-MB-231 [7]): 20.7%
Activity (MDA-MB-231 [8]): 45.6%
Activity (MDA-MB-231 [9]): 56.8%
Activity (MDA-MB-231 [10]): Dose-dependent effect
Activity (MDA-MB-231 [11]): Dose-dependent effect
Activity (MDA-MB-231 [12]): Active
Activity (MDA-MB-231 [13]): Dose-dependent effect
Activity (MDA-MB-231 [14]): Dose-dependent effect
Activity (MDA-MB-231 [15]): Active
Activity (MDA-MB-231 [16]): Active
Activity (MDA-MB-231 [17]): Active
survival at 336 h [18]: 10%
survival at 336 h [19]: 30%
survival at 336 h [20]: 70%
survival at 336 h [21]: 90%
survival at 336 h [22]: 100%
Activity [23]: Non-Toxic
Activity [24]: Non-Toxic
Activity [25]: Non-Toxic
Activity [26]: Non-Toxic
LD50 at 336 h [27]: 366 mg/kg
Activity (MDA-MB-231 [28]): 63.3%

Compound: COc1cccc(/C=C2\CCC=CC2=O)c1
IC50 (MDA-MB-231 [1]): 1060 nM
IC50 (MCF7): 2030 nM
IC50 (A549): 1480 nM
IC50 (KB): 1550 nM
IC50 [2]: 2570 nM

Compound: COc1cc(/C=C2\CN(S(=O)(=O)c3ccccc3)C=CC2=O)cc(OC)c1OC
IC50 (MDA-MB-231 [1]): 23300 nM
IC50 (MCF7): > 25000 nM
IC50 (A549): 22400 nM

Compound: Cn1cc(/C=C2\CCC=CC2=O)c2ccccc21
IC50 (MDA-MB-231 [1]): 3370 nM
IC50 (MCF7): 6040 nM
IC50 (A549): 4920 nM
IC50 (KB): 4420 nM
IC50 [2]: 4960 nM

Compound: COc1cc(/C=C2\CN(C(=O)OCc3ccccc3)C=CC2=O)cc(OC)c1OC
IC50 (MDA-MB-231 [1]): 24200 nM
IC50 (MCF7): > 25000 nM
IC50 (A549): 21300 nM

Compound: COc1ccc(/C=C2\CCC=CC2=O)cc1[N+](=O)[O-]
IC50 (MDA-MB-231 [1]): 590 nM
IC50 (MCF7): 1680 nM
IC50 (A549): 1480 nM
IC50 (KB): 1360 nM
IC50 [2]: 1630 nM
IC50 [3]: 630 nM
Activity (MDA-MB-231 [4]): Active

Second part, led by results:

IC50 (MDA-MB-231 [1]): 15900 nM
IC50 (MCF7): 17600 nM
IC50 (A549): 18700 nM
Compound: COc1cc(/C=C2\CN(S(C)(=O)=O)C=CC2=O)cc(OC)c1OC

IC50 (MDA-MB-231 [1]): 5070 nM
IC50 (MCF7): 9080 nM
IC50 (A549): 4700 nM
IC50 (KB): 5820 nM
Compound: COc1cc(OC)c(/C=C2\CCC=CC2=O)c(OC)c1
IC50 [2]: 6450 nM

IC50 (MDA-MB-231 [1]): 670 nM
IC50 (MCF7): 5260 nM
IC50 (A549): 4250 nM
IC50 (KB): 880 nM
IC50 [3]: 110 nM
Compound: COc1cc(/C=C2\CCC=CC2=O)cc(OC)c1OC
IC50 [2]: 4750 nM
Activity (MDA-MB-231 [4]): Active

IC50 (MDA-MB-231 [1]): 1610 nM
IC50 (MCF7): 2180 nM
IC50 (A549): 1540 nM
IC50 (KB): 1520 nM
Compound: COc1cc(/C=C2\CCC=CC2=O)cc(OC)c1O
IC50 [2]: 3100 nM
